Data: US20120172408A1, “ACTIVE INGREDIENT COMPRISING INDOCYANINE GREEN AND/OR INFRACYANINE GREEN” (A.R.C. LASER GMBH, priority 2011, published 2012)

Test system: microscopic organisms
Assay: Antimicrobial effect of ICG under irradiation with light (photodynamic), infections on gingiva and teeth
Conditions: more particularly laser light, wavelength 780 to 830 nm

CC1(C)C(/C=C/C=C/C=C/C=C2\N(CCCCS(=O)(=O)O)c3ccc4ccccc4c3C2(C)C)=[N+](CCCCS(=O)(=O)[O-])c2ccc3ccccc3c21 [ICG, Indocyanine green]
effect against microscopic organisms, more particularly an antimicrobial effect: outstanding effect
